The assay has as its system lipid peroxides (LPO) in rat brain homogenate. Kind of assay: Antioxidant activity (Stocks' method): inhibition of lipid peroxide formation in brain homogenate supernatant, TBA method. The class given is biochemical, Male Wistar rats. The note with it: for Inhibition (%): rat brain homogenate supernatant, 37° C., 60 minutes, MDA by TBA method. On the procedure: Several typical examples of the compound according to the invention were tested for antioxidant activity according essentially to the Stocks' method. Male Wistar rats (about 10 weeks old) were used. After perfusion for removing the blood from the brain, brain tissues were excised and homogenized in 4 weights of 0.1M phosphate-buffered saline (pH 7.4) with water cooling. The homogenate was centrifuged at 1,000×g for 10 minutes and the supernatant was used. The brain homogenate supernatant was diluted with 10 volumes of phosphate-buffered saline and 500 μl of the dilution was incubated at 37° C. for 60 minutes. The reaction was terminated by dipping the test tube into ice. After further addition 490 μl of 0.1M phosphate-buffered saline, assay was performed by the TBA method. The quantity of lipid peroxides (LPO) was expressed in terms of amount of malonedialdehyde (MDA) per milligram of protein. For protein assay, the Lowry method was used.

Structures can show the parent of a compound that is named as a salt.

Regarding `CCCCCCCCCCCCCCCCCC(=O)OCC(COP(=O)(O)OC1=C(O)C(C(O)CO)OC1=O)OC(=O)CCCCCCCCCCCCCCCCC` (stereo not drawn) [(1), 1,2-O-Distearoyl-3-glycerophosphoryl-ascorbic acid], the “Inhibition (%)” value by setting is: (dose 1 × 10^-3 M) 100%; (dose 1 × 10^-4 M) 100%; (dose 1 × 10^-5 M) 25.7%.
For the molecule `CCCCCCCCCCCCCCCC(=O)OCC(COP(=O)(O)OC1=C(O)C(C(O)CO)OC1=O)OC(=O)CCCCCCCCCCCCCCC` (stereo not drawn) [(2), 1,2-O-Dipalmitoyl-3-glycerophosphoryl-ascorbic acid], the “Inhibition (%)” value reads like this: (dose 1 × 10^-3 M) 100%; (dose 1 × 10^-4 M) 100%; (dose 1 × 10^-5 M) 55.9%.
Take `CCCCCCCCCCCCCCCCOCC(COP(=O)(O)OC1=C(O)C(C(O)CO)OC1=O)OCCCCCCCCCCCCCCCC` (stereo not drawn) [(3), 1,2-O-Dihexadecyl-3-glycerophosphoryl-ascorbic acid]: the “Inhibition (%)” value by setting is: (dose 1 × 10^-3 M) 100%; (dose 1 × 10^-4 M) 100%; (dose 1 × 10^-5 M) 70.4%.
For `CCCCCCCCCCCC(=O)OCC(COP(=O)(O)OC1=C(O)C(C(O)CO)OC1=O)OC(=O)CCCCCCCCCCC` (stereo not drawn) [(4), 1,2-O-Dilauroyl-3-glycerophosphoryl-ascorbic acid potassium salt], the “Inhibition (%)” value runs as follows: (dose 1 × 10^-3 M) 97.8%; (dose 1 × 10^-4 M) 100%; (dose 1 × 10^-5 M) 8.6%.
For `CCCCCCCCCCCC(=O)OCC(COC(=O)CCCCCCCCCCC)OP(=O)(O)OC1=C(O)C(C(O)CO)OC1=O` (stereo not drawn) [(5), 1,3-O-Dilauroyl-2-glycerophosphoryl-ascorbic acid potassium salt] the same measures were 100%, 82.2% and 20.1%.
On to `O=C1O[C@H]([C@@H](O)CO)C(O)=C1O` [Ascorbic acid, reference compound], for which, where the note is “conclusion from the test results, compared to vitamin E”, the “antioxidant activity (in words)” value is on record as “rather promoted oxidation”. Besides, the “Inhibition (%)” value is recorded as -22.9% (dose 1 × 10^-3 M) and -28.6% (dose 1 × 10^-4 M).
As to Vitamin E [reference compound], the “Inhibition (%)” value is, setting by setting: (dose 1 × 10^-3 M) 94.3%; (dose 1 × 10^-4 M) 62.9%; (dose 1 × 10^-5 M) 28.6%.

The record behind these values is US5098898A, “Phospholipid derivatives” (Senju Pharmaceutical Co., Ltd., priority 1989, dated 1992).
